pIC50: −log10 of the molar value. Where a SMILES comes first, the peptide text is derived from it.
Experiments:
Test in all cases: HLA class I binding assay (cell-free competition, fluorescence polarization)
HLA B*4402 = HLA B*4402 (Homo sapiens, UniProt P01889, A223V/A65T/A93T/A95T/D201E/D98Y/E176V/E187L/E204Q/E69K/G107R/H137Y/K202T/L105A/L119I/N104T/N87E/Q56L/Q94N/R106L/R155S/R180D/S101N/S121R/S35A/S48T/T118I/V36M/W191S/Y140D/Y91S)
HLA B*0702 = HLA B*0702 (Homo sapiens, UniProt P01889)
HLA A*2402 = HLA A*2402 (Homo sapiens, UniProt P04439, D101N/D140Y/D185E/E176V/E190D/F33S/G103R/G107R/I119L/I121M/I306V/K335N/L105A/L180Q/L300P/N151K/N90K/Q86E/Q94H/R106L/R138H/R89G/T104I/T345S/V100E/W191G/Y123F)

Row | SMILES | pIC50 (HLA B*4402) | pIC50 (HLA B*0702) | pIC50 (HLA A*2402)
1 | CC(C)C[C@H](NC(=O)[C@H](Cc1ccccc1)NC(=O)[C@@H]1CCCN1C(=O)[C@@H](N)Cc1c[nH]cn1)C(=O)N[C@@H](CCCCN)C(=O)N[C@@H](CO)C(=O)NCC(=O)N[C@@H](Cc1ccccc1)C(=O)N[C@H](C(=O)N[C@@H](Cc1ccccc1)C(=O)O)[C@@H](C)O (H-HPFLKSGFTF-OH) | < 3.00 | 6.65 | 4.98
2 | CSCC[C@H](NC(=O)[C@H](CCC(=O)O)NC(=O)[C@@H](N)[C@@H](C)O)C(=O)N[C@@H](Cc1ccccc1)C(=O)N[C@@H](CCCCN)C(=O)N[C@@H](CC(C)C)C(=O)N[C@@H](CCCNC(=N)N)C(=O)N[C@@H](CC(C)C)C(=O)N[C@@H](CC(N)=O)C(=O)N[C@@H](CC(C)C)C(=O)O (H-TEMFKLRLNL-OH) | 4.26 | < 3.00 | 4.24

Source: article PMC8138313, “Identification, Selection and Immune Assessment of Liver Stage CD8 T Cell Epitopes From Plasmodium falciparum” (Frontiers in Immunology, 2021)
